This note sets out measurements from patent US20260049331A1, “Sense-and-Response of Proteins, Peptides, and Small Molecules Using Ligand-Induced Dimerization Activating RNA Editing (LIDAR)” (The Board of Trustees of the Leland Stanford Junior …, priority 2022, published 2026).

Experiment [1] relates to CCR6-based LIDAR outputting iCASP9 (cLSM01-C5 cells). Put plainly: LIDAR-induced cell apoptosis with iCASP9 output in stable cell line cLSM01-C5. Type of experiment: cell-based. The note with it: only when both CCL20 and AP1903 are present; flow cytometry and microscopy; FIG. 9F. The procedure: In terms of generalizing functional outputs, LIDAR was used to output iCASP9 as a ligand-dependent cell death controller (13) (FIG. 9E), as iCASP9 induces apoptosis in response to the dimerizing molecule AP1903. A monoclonal cell line was generated (cLSM01-C5) expressing all three components of CCR6-based LIDAR by stable PiggyBac integrations. […] Another functional output was then tested, tobacco etch virus (TEV) protease, given our expertise (14) and its broad use (15) in synthetic circuits. A LIDAR-produced TEV protease rescues a fluorescent protein linked via a TEV protease cleavage site to a degron (FIG. 9G). Its dose response curve resembles that of the corresponding LIDAR that directly outputs EGFP (FIG. 9H and FIG. 13F). […] This indicates the potential for LIDAR to be implemented in more complex circuits (16).
A general note: A flow cytometer gives signals particle by particle.

A further experiment has as its target T1, CCR6-based LIDAR (Homo sapiens, UniProt P51684).
T1 construct: ADAR2dd (deaminase domain of ADAR2); expressed in transfected cells; host or cells: HEK293 (receiver cells)
Put plainly: CCR6-based LIDAR sensing of secreted or membrane-bound CCL20 from sender cells. It is filed as cell-based. Particulars: conditioned media from CCL20-secreting cells or co-culture with cells displaying CCL20; FIG. 10A-D. From the text:
Inspired by examples from synNotch (19, 20) and given the advantage that LIDAR could potentially sense both membrane-bound and soluble ligands. LIDAR was used to drive cell-cell interactions to ultimately program complex multicellular behaviors (21-23). CCR6-based LIDAR senses its ligand, CCL20 (FIG. 10A-D), when the receiver cells are either exposed to conditioned media from CCL20-secreting cells (FIG. 10A, B) or co-cultured with cells displaying CCL20 on their surface (FIG. 10C, D). […] Receiver cells surrounding cells that produce secreted ligands were plated (FIG. 10E), a response gradient was observed going from the sender cells outwards (FIG. 10F). In contrast, when the receiver cells with sender cells producing a membrane-bound ligand were tested, the response pattern is limited to the sender-receiver interface (FIG. 10G, H). The images were quantified to extract the LIDAR output intensity profiles in response to membrane-bound and secreted ligands.

Experiment [2] addresses GPCR fused to MCP (inverted GPCR LIDAR design; GPCRs not named). Put plainly: cell-based or functional assay.
For experiment [3], the system named is AVPR-LIDAR and CX3CR1-LIDAR. As to the kind of experiment: orthogonal ChaCha-like LIDAR receptors (AVPR-LIDAR and CX3CR1-LIDAR) in the same cell. It is filed as cell-based, human. Particulars: MCP/MS2 reporter outputs EGFP, PCP/PP7 reporter outputs mTagBFP; FIG. 10K. The procedure:
To maintain a fast design-build-test cycle, unless specified, all prototyping experiments were performed by transiently co-transfecting receptor-encoding DNA plasmids into human embryonic kidney (HEK) 293 cells.
To program more complex multi-cellular behaviors, as well as to integrate multiple inputs for targeted cell therapies, it is often required to have receptors that process orthogonal signals in the same cell. In our most commonly used configuration (Tango-like LIDAR), the β-arrestin2-RBP fusion protein is recruited to all GPCRs without discrimination. This means that with two different GPCR-LIDAR receptors (e.g., AVPR-based LIDAR and CX3CR1-based LIDAR) the system would only be able to produce one output, triggered by either ligand. In the inverted version, the ADAR2dd and the RBP are interchanged to obtain the GPCR-RBP and β-arrestin2-ADAR2dd fusion proteins, analogous to TANGO vs. ChaCha receptors (25) (FIG. 10J). Because a separate RBP is needed for each receptor. MCP was used for a reporter RNA harboring MS2 loops and outputting EGFP and PP7 bacteriophage coat protein (PCP) for a reporter RNA harboring PP7 loops and outputting mTagBFP.

T1 sequence (P51684 whole entry, the tested form may be a part): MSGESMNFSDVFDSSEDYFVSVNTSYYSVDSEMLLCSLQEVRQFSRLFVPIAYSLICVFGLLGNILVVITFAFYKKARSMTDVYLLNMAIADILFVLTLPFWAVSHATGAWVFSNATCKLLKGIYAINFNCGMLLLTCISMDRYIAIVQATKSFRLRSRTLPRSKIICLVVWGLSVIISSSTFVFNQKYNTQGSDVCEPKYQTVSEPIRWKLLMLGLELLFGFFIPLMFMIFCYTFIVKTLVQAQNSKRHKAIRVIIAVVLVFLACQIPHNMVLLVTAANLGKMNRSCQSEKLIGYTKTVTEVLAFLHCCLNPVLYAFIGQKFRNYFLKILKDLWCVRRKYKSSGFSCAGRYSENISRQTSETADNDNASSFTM
T1 sequence (P32121 whole entry partner, the tested form may be a part): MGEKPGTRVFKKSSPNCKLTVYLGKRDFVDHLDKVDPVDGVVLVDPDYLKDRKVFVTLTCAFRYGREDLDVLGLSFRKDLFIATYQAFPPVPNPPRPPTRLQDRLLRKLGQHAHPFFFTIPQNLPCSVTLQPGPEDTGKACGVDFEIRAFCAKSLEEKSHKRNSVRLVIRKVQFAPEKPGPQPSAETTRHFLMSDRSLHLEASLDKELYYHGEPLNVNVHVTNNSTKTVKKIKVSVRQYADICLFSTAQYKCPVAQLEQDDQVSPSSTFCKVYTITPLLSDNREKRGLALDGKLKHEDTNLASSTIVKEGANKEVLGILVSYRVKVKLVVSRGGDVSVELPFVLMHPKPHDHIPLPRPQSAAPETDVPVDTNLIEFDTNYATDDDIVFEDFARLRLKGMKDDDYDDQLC

With CCL20: chemokine, GPCR ligand of CCR6, the cell death result in experiment [1] is on record as “Substantial cell death”. Moreover, the “ligand sensing by receiver cells” value in the experiment with CCR6-based LIDAR was “senses”. In turn, “β-arrestin2-ADAR2dd (inverted / ChaCha-like LIDAR) (from UniProt P32121 1-409; P78563 299-701)” displayed a fold activation of inverted GPCR LIDAR in experiment [2] of less than 17 ×. In the case of `CC[C@H](C(=O)N1CCCC[C@H]1C(=O)O[C@H](CCc1ccc(OC)c(OC)c1)c1cccc(OCC(=O)NCCNC(=O)COc2cccc([C@@H](CCc3ccc(OC)c(OC)c3)OC(=O)[C@@H]3CCCCN3C(=O)[C@@H](CC)c3cc(OC)c(OC)c(OC)c3)c2)c1)c1cc(OC)c(OC)c(OC)c1` [AP1903, reference compound], the cell death result in experiment [1] is “Substantial cell death”. In the case of `NC(=O)CC[C@@H]1NC(=O)[C@H](Cc2ccccc2)NC(=O)[C@H](Cc2ccc(O)cc2)NC(=O)[C@@H](N)CSSC[C@@H](C(=O)N2CCC[C@H]2C(=O)N[C@@H](CCCN=C(N)N)C(=O)NCC(N)=O)NC(=O)[C@H](CC(N)=O)NC1=O` [AVP, Arginine vasopressin, reference compound], the “output produced by each ligand in the same cell” value in experiment [3] was “EGFP exclusively”.

B1: CX3CL1: ligand of CX3CR1-LIDAR (protein)
chain: QHHGVTKCNITCSKMTSKIPVALLIHYQQNQASCGKRAIILETRQHRLFCADPKEQWVKDAMQHLDRQAAALTRNG
As to B1, the “output produced by each ligand in the same cell” value in experiment [3] is “mTagBFP exclusively”.
